# Results from publication PMC5218480 (PLoS ONE, 2017).
# Tested on: MV-4-11 cells
# Assay: Gene expression microarray analysis (Affymetrix PrimeView) and GSEA
# Format: cell-based, human
# Set-up: RFU PODN (11730768_x_at) / Fold change /veh PODN (11730768_x_at) / RFU LINC00158 (11744669_a_at) / Fold change /veh LINC00158 (11744669_a_at) / RFU DUSP10 (11751237_a_at) / Fold change /veh DUSP10 (11751237_a_at) / RFU ID3 (11757404_x_at) / Fold change /veh ID3 (11757404_x_at) / RFU PLEKHG5 (11737974_s_at) / Fold change /veh PLEKHG5 (11737974_s_at) / RFU LRRC4B (11730491_at) / Fold change /veh LRRC4B (11730491_at) / RFU GIMAP4 (11747438_a_at) / Fold change /veh GIMAP4 (11747438_a_at) / RFU KRT8 (11758183_x_at) / Fold change /veh KRT8 (11758183_x_at) / RFU CNN1 (11734310_a_at) / Fold change /veh CNN1 (11734310_a_at) / RFU VPS37D (11726825_at) / Fold change /veh VPS37D (11726825_at) / RFU C10orf10 (11716522_x_at) / Fold change /veh C10orf10 (11716522_x_at) / RFU KIR2DL2 /// KIR2DL4 /// KIR2DL5A /// KIR2DL5B /// KIR2DS1 /// KIR2DS2 /// KIR2DS3 /// KIR2DS4 /// KIR3DL3 /// KIR3DL3 /// KIR3DS1 (11738374_at) / Fold change /veh KIR2DL2 /// KIR2DL4 /// KIR2DL5A /// KIR2DL5B /// KIR2DS1 /// KIR2DS2 /// KIR2DS3 /// KIR2DS4 /// KIR3DL3 /// KIR3DL3 /// KIR3DS1 (11738374_at) / RFU C1QL1 (11718748_at) / Fold change /veh C1QL1 (11718748_at) / RFU TMPRSS4 (11747572_a_at) / Fold change /veh TMPRSS4 (11747572_a_at) / RFU HAMP (11756126_x_at) / Fold change /veh HAMP (11756126_x_at) / RFU RNFT2 (11725882_a_at) / Fold change /veh RNFT2 (11725882_a_at) / RFU NR4A2 (11747474_a_at) / Fold change /veh NR4A2 (11747474_a_at) / RFU ABCC12 (11746883_a_at) / Fold change /veh ABCC12 (11746883_a_at) / RFU TMEM136 (11760407_x_at) / Fold change /veh TMEM136 (11760407_x_at) / RFU CLDN22 /// WWC2 (11732394_at) / Fold change /veh CLDN22 /// WWC2 (11732394_at) / RFU HLA-DPB1 (11760878_x_at) / Fold change /veh HLA-DPB1 (11760878_x_at) / RFU SPINT1 (11716480_a_at) / Fold change /veh SPINT1 (11716480_a_at) / RFU GAP43 (11754022_s_at) / Fold change /veh GAP43 (11754022_s_at) / RFU A4GNT (11735810_at) / Fold change /veh A4GNT (11735810_at) / RFU PRB3 (11715151_x_at) / Fold change /veh PRB3 (11715151_x_at) / RFU TUBB4B (11761932_at) / Fold change /veh TUBB4B (11761932_at) / RFU CAPN14 (11732068_a_at) / Fold change /veh CAPN14 (11732068_a_at) / RFU TMCC2 (11721928_a_at) / Fold change /veh TMCC2 (11721928_a_at) / RFU IRGQ (11745062_a_at) / Fold change /veh IRGQ (11745062_a_at) / RFU FAM174B (11720279_a_at) / Fold change /veh FAM174B (11720279_a_at) / RFU TMPRSS4 (11748680_a_at) / Fold change /veh TMPRSS4 (11748680_a_at) / RFU FAM212B (11763350_a_at) / Fold change /veh FAM212B (11763350_a_at) / RFU PLEKHG5 (11743358_a_at) / Fold change /veh PLEKHG5 (11743358_a_at) / RFU ZSCAN30 (11745921_a_at) / Fold change /veh ZSCAN30 (11745921_a_at) / RFU CMKLR1 (11741424_a_at) / Fold change /veh CMKLR1 (11741424_a_at) / RFU LOC101060620 /// MAPK8IP1 (11723275_at) / Fold change /veh LOC101060620 /// MAPK8IP1 (11723275_at) / RFU SPTSSB (11747773_x_at) / Fold change /veh SPTSSB (11747773_x_at) / RFU PRSS12 (11739890_at) / Fold change /veh PRSS12 (11739890_at) / RFU BIN1 (11741810_x_at) / Fold change /veh BIN1 (11741810_x_at) / RFU WNT11 (11732464_a_at) / Fold change /veh WNT11 (11732464_a_at) / RFU C10orf10 (11716521_a_at) / Fold change /veh C10orf10 (11716521_a_at) / RFU C5orf56 (11738089_at) / Fold change /veh C5orf56 (11738089_at) / RFU CYB561 (11721691_x_at) / Fold change /veh CYB561 (11721691_x_at) / RFU ANKRD19P (11752326_a_at) / Fold change /veh ANKRD19P (11752326_a_at) / RFU OR2T12 /// OR2T33 /// OR2T8 (11738714_s_at) / Fold change /veh OR2T12 /// OR2T33 /// OR2T8 (11738714_s_at) / RFU VCAN (11748164_a_at) / Fold change /veh VCAN (11748164_a_at) / RFU JSRP1 (11732532_at) / Fold change /veh JSRP1 (11732532_at) / RFU KRTAP10-11 (11738290_x_at) / Fold change /veh KRTAP10-11 (11738290_x_at) / RFU MYO3A (11730013_a_at) / Fold change /veh MYO3A (11730013_a_at) / RFU EBF3 (11725865_a_at) / Fold change /veh EBF3 (11725865_a_at) / RFU CAMK2N1 (11719241_x_at) / Fold change /veh CAMK2N1 (11719241_x_at) / RFU C5orf56 (11738088_a_at) / Fold change /veh C5orf56 (11738088_a_at) / RFU OLFML3 (11715873_a_at) / Fold change /veh OLFML3 (11715873_a_at) / RFU LOC100653217 /// NTM (11731650_a_at) / Fold change /veh LOC100653217 /// NTM (11731650_a_at) / RFU MAPK11 (11762145_a_at) / Fold change /veh MAPK11 (11762145_a_at) / RFU FIZ1 (11724087_x_at) / Fold change /veh FIZ1 (11724087_x_at) / RFU OASL (11726364_x_at) / Fold change /veh OASL (11726364_x_at) / RFU SOX15 (11748057_x_at) / Fold change /veh SOX15 (11748057_x_at) / RFU CD79A (11719716_a_at) / Fold change /veh CD79A (11719716_a_at) / RFU HIST1H1D (11736915_at) / Fold change /veh HIST1H1D (11736915_at) / RFU CASKIN2 (11723855_a_at) / Fold change /veh CASKIN2 (11723855_a_at) / RFU LOC730098 (11760151_x_at) / Fold change /veh LOC730098 (11760151_x_at) / RFU OR4N2 (11742367_at) / Fold change /veh OR4N2 (11742367_at) / RFU PRRT2 (11749266_a_at) / Fold change /veh PRRT2 (11749266_a_at) / RFU SNX32 (11753110_a_at) / Fold change /veh SNX32 (11753110_a_at) / RFU CDHR5 (11726645_a_at) / Fold change /veh CDHR5 (11726645_a_at) / RFU RCAN1 (11760418_a_at) / Fold change /veh RCAN1 (11760418_a_at) / RFU FAM167A (11723789_a_at) / Fold change /veh FAM167A (11723789_a_at) / RFU FAM26E (11764081_at) / Fold change /veh FAM26E (11764081_at) / RFU ISYNA1 (11749810_s_at) / Fold change /veh ISYNA1 (11749810_s_at) / RFU ACY1 (11761880_at) / Fold change /veh ACY1 (11761880_at) / RFU 11764098_at / Fold change /veh 11764098_at / RFU SAMD14 (11745864_x_at) / Fold change /veh SAMD14 (11745864_x_at) / RFU NPB (11741838_a_at) / Fold change /veh NPB (11741838_a_at) / RFU TMPRSS6 (11731388_a_at) / Fold change /veh TMPRSS6 (11731388_a_at) / RFU KRTAP10-2 (11738614_at) / Fold change /veh KRTAP10-2 (11738614_at) / RFU ARHGAP8 /// PRR5-ARHGAP8 (11727945_x_at) / Fold change /veh ARHGAP8 /// PRR5-ARHGAP8 (11727945_x_at) / RFU KRTAP5-7 /// NADSYN1 (11734609_at) / Fold change /veh KRTAP5-7 /// NADSYN1 (11734609_at) / RFU RASL12 (11751679_a_at) / Fold change /veh RASL12 (11751679_a_at) / RFU CDKN2B (11736163_a_at) / Fold change /veh CDKN2B (11736163_a_at) / RFU PRF1 (11729649_at) / Fold change /veh PRF1 (11729649_at) / RFU, ZNF638 /// ZNF638-IT1 / Fold change vs veh, ZNF638 /// ZNF638-IT1 / RFU, PANK3 / Fold change vs veh, PANK3 / RFU, SH3YL1 / Fold change vs veh, SH3YL1 / RFU, ZEB2 / Fold change vs veh, ZEB2 / RFU, NRIP1 / Fold change vs veh, NRIP1 / RFU, PTTG1IP / Fold change vs veh, PTTG1IP / RFU, CAPN2 / Fold change vs veh, CAPN2 / RFU, MED14 / Fold change vs veh, MED14 / RFU, SNORA58 / Fold change vs veh, SNORA58 / RFU, C1orf63 / Fold change vs veh, C1orf63 / RFU, LRRFIP1 / Fold change vs veh, LRRFIP1 / RFU, NDUFAF7 / Fold change vs veh, NDUFAF7 / RFU, SLC12A2 / Fold change vs veh, SLC12A2 / RFU, IBTK / Fold change vs veh, IBTK / RFU, ESF1 / Fold change vs veh, ESF1 / Fold change vs veh, TMEM50B / RFU, TAOK1 / Fold change vs veh, TAOK1 / RFU, ACBD3 / Fold change vs veh, ACBD3 / RFU, TMA16 / Fold change vs veh, TMA16 / RFU, RWDD3 / Fold change vs veh, RWDD3 / RFU, BCAT1 / Fold change vs veh, BCAT1 / RFU, EDEM3 / Fold change vs veh, EDEM3 / RFU, TMEM33 / Fold change vs veh, TMEM33 / RFU, WDR75 / Fold change vs veh, WDR75 / RFU, AHCTF1 / Fold change vs veh, AHCTF1 / RFU, TFRC / Fold change vs veh, TFRC / RFU, ZDHHC17 / Fold change vs veh, ZDHHC17 / RFU, NOM1 / Fold change vs veh, NOM1 / RFU, ARL8B / Fold change vs veh, ARL8B / RFU, ZBTB11 / Fold change vs veh, ZBTB11 / RFU, TAMM41 / Fold change vs veh, TAMM41 / RFU, KIAA1704 /// LOC100996395 / Fold change vs veh, KIAA1704 /// LOC100996395 / RFU, ING1 / Fold change vs veh, ING1 / RFU, TRMT61B / Fold change vs veh, TRMT61B / RFU, FUBP3 / Fold change vs veh, FUBP3 / RFU, TP53 / Fold change vs veh, TP53 / RFU, TNKS2 / Fold change vs veh, TNKS2 / RFU, ZFP14 / Fold change vs veh, ZFP14 / RFU, ACTR2 / Fold change vs veh, ACTR2 / RFU, PPP3R1 / Fold change vs veh, PPP3R1 / RFU, PIK3R1 / Fold change vs veh, PIK3R1 / RFU, HNRNPA1 / Fold change vs veh, HNRNPA1 / RFU, RNF170 / Fold change vs veh, RNF170 / RFU, ZNF28 / Fold change vs veh, ZNF28 / RFU, RNGTT / Fold change vs veh, RNGTT / RFU, OGT / Fold change vs veh, OGT / RFU, BRD1 / Fold change vs veh, BRD1 / RFU, MARS / Fold change vs veh, MARS / RFU, ZNF655 / Fold change vs veh, ZNF655 / RFU, FAHD1 / Fold change vs veh, FAHD1 / RFU, BDP1 / Fold change vs veh, BDP1 / RFU, LRRCC1 / Fold change vs veh, LRRCC1 / RFU, ARID1A / Fold change vs veh, ARID1A / RFU, ZNF146 / Fold change vs veh, ZNF146 / RFU, ZNF330 / Fold change vs veh, ZNF330 / RFU, GPN3 / Fold change vs veh, GPN3 / RFU, C9orf123 / Fold change vs veh, C9orf123 / RFU, N4BP2L2 / Fold change vs veh, N4BP2L2 / RFU, ARFIP1 / Fold change vs veh, ARFIP1 / RFU, FAM179B / Fold change vs veh, FAM179B / RFU, BCL10 / Fold change vs veh, BCL10 / RFU, UHRF1BP1L / Fold change vs veh, UHRF1BP1L / RFU, BET1 / Fold change vs veh, BET1 / RFU, CNOT2 / Fold change vs veh, CNOT2 / RFU, ZNF268 / Fold change vs veh, ZNF268 / Fold change vs veh, ZNF507 / RFU, DGCR2 / Fold change vs veh, DGCR2 / RFU, WDSUB1 / Fold change vs veh, WDSUB1 / Fold change vs veh, HSP90B1 /// MIR3652 / RFU, ADSS / Fold change vs veh, ADSS / RFU, GK / Fold change vs veh, GK / RFU, ZNF148 / Fold change vs veh, ZNF148 / RFU, TAF9 / Fold change vs veh, TAF9 / RFU, SLC1A5 / Fold change vs veh, SLC1A5 / RFU, SLMO2 / Fold change vs veh, SLMO2 / RFU, ABCC4 / Fold change vs veh, ABCC4 / RFU, LOC101060439 /// RAP1B / Fold change vs veh, LOC101060439 /// RAP1B / RFU, RFX7 / Fold change vs veh, RFX7 / RFU, GTPBP10 / Fold change vs veh, GTPBP10 / RFU, CNEP1R1 / Fold change vs veh, CNEP1R1 / RFU, BIVM-ERCC5 /// ERCC5 / Fold change vs veh, BIVM-ERCC5 /// ERCC5 / RFU, ILF3 / Fold change vs veh, ILF3 / RFU 11762660_at / Fold change /veh 11762660_at / RFU VCAN (11757783_s_at) / Fold change /veh VCAN (11757783_s_at) / RFU DDX43 (11728927_at) / Fold change /veh DDX43 (11728927_at) / RFU KRT8 (11758188_x_at) / Fold change /veh KRT8 (11758188_x_at) / RFU NKD1 (11759106_at) / Fold change /veh NKD1 (11759106_at) / RFU SRD5A1 (11742802_a_at) / Fold change /veh SRD5A1 (11742802_a_at) / RFU TPSAB1 /// TPSB2 (11721975_s_at) / Fold change /veh TPSAB1 /// TPSB2 (11721975_s_at) / RFU GSTM3 (11746129_a_at) / Fold change /veh GSTM3 (11746129_a_at) / RFU IL23R (11737362_x_at) / Fold change /veh IL23R (11737362_x_at) / RFU TMEM51 (11727254_a_at) / Fold change /veh TMEM51 (11727254_a_at) / RFU PIWIL2 (11732686_x_at) / Fold change /veh PIWIL2 (11732686_x_at) / RFU ORM1 (11744905_x_at) / Fold change /veh ORM1 (11744905_x_at) / RFU CCDC152 (11743942_at) / Fold change /veh CCDC152 (11743942_at) / RFU ECM1 (11717891_a_at) / Fold change /veh ECM1 (11717891_a_at) / RFU IL23R (11748794_a_at) / Fold change /veh IL23R (11748794_a_at) / RFU TNFAIP8L3 (11732012_x_at) / Fold change /veh TNFAIP8L3 (11732012_x_at) / RFU MBOAT4 (11741988_at) / Fold change /veh MBOAT4 (11741988_at) / RFU 11764193_at / Fold change /veh 11764193_at / RFU TMEM53 (11763286_at) / Fold change /veh TMEM53 (11763286_at) / RFU MAGEB2 (11727129_at) / Fold change /veh MAGEB2 (11727129_at) / RFU TMEM200A (11744735_a_at) / Fold change /veh TMEM200A (11744735_a_at) / RFU CCDC152 (11751479_a_at) / Fold change /veh CCDC152 (11751479_a_at) / RFU FAM211A (11726209_a_at) / Fold change /veh FAM211A (11726209_a_at) / RFU RGS16 (11746705_a_at) / Fold change /veh RGS16 (11746705_a_at) / RFU VCAN (11755009_s_at) / Fold change /veh VCAN (11755009_s_at) / RFU RHOB (11743442_s_at) / Fold change /veh RHOB (11743442_s_at) / RFU RGS16 (11720943_a_at) / Fold change /veh RGS16 (11720943_a_at) / RFU RGS16 (11720944_at) / Fold change /veh RGS16 (11720944_at) / RFU, VPS4B / Fold change vs veh, VPS4B / RFU, CREB1 / Fold change vs veh, CREB1 / RFU, DNAJC13 / Fold change vs veh, DNAJC13 / RFU, GNAQ / Fold change vs veh, GNAQ / RFU, CDK5R1 / Fold change vs veh, CDK5R1 / RFU, ZRANB3 / Fold change vs veh, ZRANB3 / RFU, CUL4A / Fold change vs veh, CUL4A / RFU, CCNY / Fold change vs veh, CCNY / RFU, UFL1 / Fold change vs veh, UFL1 / RFU, COG3 / Fold change vs veh, COG3 / RFU, DIAPH2 / Fold change vs veh, DIAPH2 / RFU, SKA2 / Fold change vs veh, SKA2 / RFU, AFF3 / Fold change vs veh, AFF3 / RFU, LMF1 / Fold change vs veh, LMF1 / RFU, IPO11 / Fold change vs veh, IPO11 / RFU, DFFB / Fold change vs veh, DFFB / RFU, FOXP1 / Fold change vs veh, FOXP1 / RFU, CARD8 / Fold change vs veh, CARD8 / RFU, STRN3 / Fold change vs veh, STRN3 / RFU, ADK / Fold change vs veh, ADK / RFU, RASSF2 / Fold change vs veh, RASSF2 / RFU, WIPF1 / Fold change vs veh, WIPF1 / RFU, LARP1B / Fold change vs veh, LARP1B / RFU, RASA1 / Fold change vs veh, RASA1 / RFU, RB1 / Fold change vs veh, RB1 / RFU, PPFIA1 / Fold change vs veh, PPFIA1 / RFU, MAT2A / Fold change vs veh, MAT2A / RFU, CCT5 / Fold change vs veh, CCT5 / RFU, WDR92 / Fold change vs veh, WDR92 / RFU, CUX1 / Fold change vs veh, CUX1 / RFU, TTC7A / Fold change vs veh, TTC7A / RFU, TMEM135 / Fold change vs veh, TMEM135 / RFU, DEPTOR / Fold change vs veh, DEPTOR / RFU, CPM / Fold change vs veh, CPM / RFU, DNAJB6 / Fold change vs veh, DNAJB6 / RFU, CACNA2D3 / Fold change vs veh, CACNA2D3 / RFU, DTX4 / Fold change vs veh, DTX4 / RFU, TFCP2 / Fold change vs veh, TFCP2 / RFU, GMCL1 /// GMCL1P1 / Fold change vs veh, GMCL1 /// GMCL1P1 / RFU, AEBP2 / Fold change vs veh, AEBP2 / RFU, SNHG1 /// SNORD22 /// SNORD25 /// SNORD26 /// SNORD27 /// SNORD28 /// SNORD29 /// SNORD31 / Fold change vs veh, SNHG1 /// SNORD22 /// SNORD25 /// SNORD26 /// SNORD27 /// SNORD28 /// SNORD29 /// SNORD31 / Fold change (Aza/veh), C12orf56 (ProbeSet 11735607_a_at) / Fold change (ACY-1035/veh), C12orf56 (ProbeSet 11735607_a_at) / Fold change (Aza/veh), FGFR1OP (ProbeSet 11751329_s_at) / Fold change (ACY-1035/veh), FGFR1OP (ProbeSet 11751329_s_at) / Fold change (Aza/veh), VPS36 (ProbeSet 11739960_a_at) / Fold change (ACY-1035/veh), VPS36 (ProbeSet 11739960_a_at) / RFU SYPL1 (11715823_x_at) / Fold change /veh SYPL1 (11715823_x_at) / RFU IGFBP7 (11715501_s_at) / Fold change /veh IGFBP7 (11715501_s_at) / RFU REEP3 (11722064_at) / Fold change /veh REEP3 (11722064_at) / RFU IGLL1 (11728026_x_at) / Fold change /veh IGLL1 (11728026_x_at): dose or concentration left out as unconfirmed
# Details: MV-4-11 cells, 48 hours
structure (smiles),measurement,value
Nc1ccc(-c2cccs2)cc1NC(=O)c1ccc2c(c1)cc(C1CC1)n2CCN1CCOCC1 [ACY-1035],Fold change /veh FAM174B (11720279_a_at),1.09
